# Measured values: patent US20230330077A1, “USE OF SPHINGOSINE-1-PHOSPHATE RECEPTOR AGONIST” (LG CHEM, LTD., priority 2020, published 2023)
# Legend:
# [1] = test system: oxazolone-induced animal model of atopic dermatitis; test: oxazolone-induced animal model of atopic dermatitis in mice; type: in vivo, mice (Balb/c)
# Description: An animal model of atopic dermatitis was induced in mice (Balb/c) by the use of oxazolone. With the first sensitization day of oxazolone set as day 0, it was administered orally or transdermally starting on day 7 once a day. When the date of application of oxazolone and the date of administration of the drug were overlapped, the drug was administered about 6 hours after application of oxazolone.
# For all mice, abdominal hair was removed one day before the first application of oxazolone. Then, 1% or 0.2% oxazolone was prepared by the use of a 4:1 ratio of acetone/corn oil, and sensitization and induction on the shaved mouse abdomen and both ears were performed with the same dose and schedule as represented in Table 1 and FIG. 1.
# The test substances (the Test Compound and dexamethasone as a positive control) were prepared for each administration dose as represented in Table 2 below by the use of 0.5% methyl cellulose. In the case of the Test Compound, it was prepared in consideration of the HCl salt form. The test substances were dissolved in 0.5% methyl cellulose and then sonicated.
# The test substances were prepared by dissolving them at the concentration of 0.1% (w/v) in a solution (PEG400:100% ethanol=1:1). 5 mL of PEG400 was added to 10 mg of the test substances and sonicated. When they were dissolved to some extent, 5 mL of 100% ethanol was added thereto and sonicated to dissolve them completely. In addition, the vehicle and the test substances were prepared fresh every day and used.
# [2] = test system: oxazolone-induced animal model of atopic dermatitis; test: as above; type: in vivo, mice (Balb/c); conditions: Example 4, Table 3; for Therapeutic effect (Compared to disease-induced group): Ear thickness (Day 21 after administration): reduction in ear thickness
# [3] = Example 4, Table 3, oral administration 1 mg/kg once a day, reduction in ear thickness
# [4] = Example 4, Table 3, oral administration 1 mg/kg once a day, reduction in ear weight after autopsy
# [5] = Example 4, Table 3, oral administration 1 mg/kg once a day, reduction in epidermal thickness
# [6] = Example 4, Table 3, oral administration 1 mg/kg once a day, reduction in the blood level of IgE
# [7] = Example 5 comparative experimentation, Table 4, oral administration 0.1 mg/kg
# [8] = Example 5 comparative experimentation, Table 4, oral administration 0.3 mg/kg
# [9] = Example 5 comparative experimentation, Table 4, oral administration 1 mg/kg
# [10] = Example 5 comparative experimentation, Table 4, oral administration 1 mg/kg, blood level of IgE
compound,measurement,setting,value
"C[C@@H]1C[C@H]2[C@@H]3CCC4=CC(=O)C=C[C@]4(C)[C@@]3(F)[C@@H](O)C[C@]2(C)[C@@]1(O)C(=O)CO [Dexamethasone, dexamethasone, reference compound]",Therapeutic effect (Compared to disease-induced group): Ear thickness (Day 21 after administration),[1]; [3],66%
same,Therapeutic effect (Compared to disease-induced group): Ear weight (Day 21 after administration),[1]; [4],54%
same,Therapeutic effect (Compared to disease-induced group): Epidermal thickness of ear tissue (Day 21 after administration),[1]; [5],55%
same,Therapeutic effect (Compared to disease-induced group): IgE (Day 21 after administration),[1]; [6],12%
"CC(C)n1nc(Cl)c2cc(COc3ccc4c(c3)CCC(CN3CCC(C(=O)O)CC3)=C4Cl)ccc21 [Test Compound, 1-[1-Chloro-6-(3-chloro-1-isopropyl-1H-indazol-5-ylmethoxy)-3,4-dihydro-naphthalen-2-ylmethyl]-piperidine-4-carboxylic acid]",Therapeutic effect (Compared to disease-induced group): Ear thickness (Day 21 after administration),"[1]; Example 4, Table 3, oral administration 0.1 mg/kg once a day, reduction in ear thickness",37%
same,Therapeutic effect (Compared to disease-induced group): Ear weight (Day 21 after administration),"[1]; Example 4, Table 3, oral administration 0.1 mg/kg once a day, reduction in ear weight after autopsy",−2%
same,Therapeutic effect (Compared to disease-induced group): Epidermal thickness of ear tissue (Day 21 after administration),"[1]; Example 4, Table 3, oral administration 0.1 mg/kg once a day, reduction in epidermal thickness",25%
same,Therapeutic effect (Compared to disease-induced group): Mast cell accumulation (Day 21 after administration),"[1]; Example 4, Table 3, oral administration 0.1 mg/kg once a day, reduction in mast cell accumulation, ear tissue",21%
same,Therapeutic effect (Compared to disease-induced group): IgE (Day 21 after administration),"[1]; Example 4, Table 3, oral administration 0.1 mg/kg once a day, reduction in the blood level of IgE",−56%
same,Therapeutic effect (Compared to disease-induced group): Ear thickness (Day 21 after administration),"[1]; Example 4, Table 3, oral administration 0.3 mg/kg once a day, reduction in ear thickness",63%
same,Therapeutic effect (Compared to disease-induced group): Ear weight (Day 21 after administration),"[1]; Example 4, Table 3, oral administration 0.3 mg/kg once a day, reduction in ear weight after autopsy",48%
same,Therapeutic effect (Compared to disease-induced group): Epidermal thickness of ear tissue (Day 21 after administration),"[1]; Example 4, Table 3, oral administration 0.3 mg/kg once a day, reduction in epidermal thickness",56%
same,Therapeutic effect (Compared to disease-induced group): Mast cell accumulation (Day 21 after administration),"[1]; Example 4, Table 3, oral administration 0.3 mg/kg once a day, reduction in mast cell accumulation, ear tissue",34%
same,Therapeutic effect (Compared to disease-induced group): IgE (Day 21 after administration),"[1]; Example 4, Table 3, oral administration 0.3 mg/kg once a day, reduction in the blood level of IgE",38%
same,Therapeutic effect (Compared to disease-induced group): Ear thickness (Day 21 after administration),[1]; [3],61%
same,Therapeutic effect (Compared to disease-induced group): Ear weight (Day 21 after administration),[1]; [4],53%
same,Therapeutic effect (Compared to disease-induced group): Epidermal thickness of ear tissue (Day 21 after administration),[1]; [5],61%
same,Therapeutic effect (Compared to disease-induced group): Mast cell accumulation (Day 21 after administration),"[1]; Example 4, Table 3, oral administration 1 mg/kg once a day, reduction in mast cell accumulation, ear tissue",29%
same,Therapeutic effect (Compared to disease-induced group): IgE (Day 21 after administration),[1]; [6],44%
same,Therapeutic effect (Compared to disease-induced group): Ear weight (Day 21 after administration),"[1]; Example 4, Table 3, topical administration 0.01% once a day, reduction in ear weight after autopsy",65%
same,Therapeutic effect (Compared to disease-induced group): Mast cell accumulation (Day 21 after administration),"[1]; Example 4, Table 3, topical administration 0.01% once a day, reduction in mast cell accumulation, ear tissue",42%
same,Therapeutic effect (Compared to disease-induced group): IgE (Day 21 after administration),"[1]; Example 4, Table 3, topical administration 0.01% once a day, reduction in the blood level of IgE",43%
same,Therapeutic effect (Compared to disease-induced group): Ear weight (Day 21 after administration),"[1]; Example 4, Table 3, topical administration 0.03% once a day, reduction in ear weight after autopsy",72%
same,Therapeutic effect (Compared to disease-induced group): Epidermal thickness of ear tissue (Day 21 after administration),"[1]; Example 4, Table 3, topical administration 0.03% once a day, reduction in epidermal thickness",55%
same,Therapeutic effect (Compared to disease-induced group): Mast cell accumulation (Day 21 after administration),"[1]; Example 4, Table 3, topical administration 0.03% once a day, reduction in mast cell accumulation, ear tissue",59%
same,Therapeutic effect (Compared to disease-induced group): Ear thickness (Day 21 after administration),"[1]; Example 4, Table 3, topical administration 0.1% once a day, reduction in ear thickness",69%
same,Therapeutic effect (Compared to disease-induced group): Ear weight (Day 21 after administration),"[1]; Example 4, Table 3, topical administration 0.1% once a day, reduction in ear weight after autopsy",69%
same,Therapeutic effect (Compared to disease-induced group): Epidermal thickness of ear tissue (Day 21 after administration),"[1]; Example 4, Table 3, topical administration 0.1% once a day, reduction in epidermal thickness",58%
same,Therapeutic effect (Compared to disease-induced group): Mast cell accumulation (Day 21 after administration),"[1]; Example 4, Table 3, topical administration 0.1% once a day, reduction in mast cell accumulation, ear tissue",70%
same,Therapeutic effect (Compared to disease-induced group): IgE (Day 21 after administration),"[1]; Example 4, Table 3, topical administration 0.1% once a day, reduction in the blood level of IgE",71%
same,overall effect in the oxazolone-induced animal model of atopic dermatitis versus positive control,"[1]; Example 4, summary of Table 3 and FIGS. 2 to 6",superior effect in a dose-dependent manner compared to dexamethasone
same,overall effect in the animal model of atopic dermatitis versus comparative compound,"[1]; Example 5, summary of Table 4 and FIG. 7","equal or superior effects even at lower doses compared to the comparative compound, etrasimod"
same,Therapeutic effect (Compared to disease-induced group): Ear thickness (Day 21 after administration),[1]; [7],14%
same,Therapeutic effect (Compared to disease-induced group): Ear weight (Day 21 after administration),[1]; [7],31%
same,Therapeutic effect (Compared to disease-induced group): Epidermal thickness of ear tissue (Day 21 after administration),[1]; [7],21%
same,Therapeutic effect (Compared to disease-induced group): Mast cell accumulation (Day 21 after administration),[1]; [7],27%
same,Therapeutic effect (Compared to disease-induced group): IgE (Day 21 after administration),"[1]; Example 5 comparative experimentation, Table 4, oral administration 0.1 mg/kg, blood level of IgE",31%
same,Therapeutic effect (Compared to disease-induced group): Ear thickness (Day 21 after administration),[1]; [8],29%
same,Therapeutic effect (Compared to disease-induced group): Ear weight (Day 21 after administration),[1]; [8],55%
same,Therapeutic effect (Compared to disease-induced group): Epidermal thickness of ear tissue (Day 21 after administration),[1]; [8],42%
same,Therapeutic effect (Compared to disease-induced group): Mast cell accumulation (Day 21 after administration),[1]; [8],35%
same,Therapeutic effect (Compared to disease-induced group): IgE (Day 21 after administration),"[1]; Example 5 comparative experimentation, Table 4, oral administration 0.3 mg/kg, blood level of IgE",46%
same,Therapeutic effect (Compared to disease-induced group): Ear thickness (Day 21 after administration),[1]; [9],42%
same,Therapeutic effect (Compared to disease-induced group): Ear weight (Day 21 after administration),[1]; [9],69%
same,Therapeutic effect (Compared to disease-induced group): Epidermal thickness of ear tissue (Day 21 after administration),[1]; [9],44%
same,Therapeutic effect (Compared to disease-induced group): Mast cell accumulation (Day 21 after administration),[1]; [9],43%
same,Therapeutic effect (Compared to disease-induced group): IgE (Day 21 after administration),[1]; [10],72%
same,Therapeutic effect (Compared to disease-induced group): Ear thickness (Day 21 after administration),[2]; topical administration 0.01% once a day,63%
same,Therapeutic effect (Compared to disease-induced group): Epidermal thickness of ear tissue (Day 21 after administration),"[2]; topical administration 0.01% once a day, reduction in epidermal thickness",26%
same,Therapeutic effect (Compared to disease-induced group): Ear thickness (Day 21 after administration),[2]; topical administration 0.03% once a day,71%
same,Therapeutic effect (Compared to disease-induced group): IgE (Day 21 after administration),"[2]; topical administration 0.03% once a day, reduction in the blood level of IgE",74%
"O=C(O)C[C@H]1CCc2c1[nH]c1ccc(OCc3ccc(C4CCCC4)c(C(F)(F)F)c3)cc21 [etrasimod, 2-[(3R)-7-[[4-cyclopentyl-3-(trifluoromethyl)phenyl]methoxy]-1,2,3,4-tetrahydrocyclopenta[b]indol-3-yl] acetic acid, reference compound]",Therapeutic effect (Compared to disease-induced group): Ear thickness (Day 21 after administration),[1]; [9],32%
same,Therapeutic effect (Compared to disease-induced group): Ear weight (Day 21 after administration),[1]; [9],50%
same,Therapeutic effect (Compared to disease-induced group): Epidermal thickness of ear tissue (Day 21 after administration),[1]; [9],36%
same,Therapeutic effect (Compared to disease-induced group): Mast cell accumulation (Day 21 after administration),[1]; [9],28%
same,Therapeutic effect (Compared to disease-induced group): IgE (Day 21 after administration),[1]; [10],47%
